Blank lines part the entries; values can stand above or below the compound they belong to.
Target: T1, KCNQ5 (Homo sapiens, UniProt Q9NR82)
T1 construct: A complete cDNA was assembled and cloned into the oocyte expression vector PTLN; expressed in transfected cells; host or cells: Xenopus oocytes injected with cRNA from pTLN
Experiment: Two-electrode voltage clamp of KCNQ5 homomers expressed in Xenopus oocytes
Type: cell-based
Experimental: KCNQ5 was expressed in Xenopus oocytes and its activity was investigated by two-electrode voltage clamping.
After linearization of the KCNQ5-containing pTLN vector with Hpal, capped cRNA was transcribed in vitro using the mMessage mMachine cRNA synthesis kit (Ambion). Usually 5-15 ng of cRNA were injected into Xenopus oocytes previously isolated by manual defolliculation and short collagenase treatment. In co-expression experiments cRNAs were injected at a 1:1 ratio. Oocytes were kept at 17° C. in modified Barth's solution (90 mM NaCl, 1 mM KCl, 0.41 mM CaCl2, 0.33 mM Ca(NO3)2, 0.82 mM MgSO4, 10 mM HEPES, 100 U penicillin—100 μg streptomycin/ml, pH 7.6).
Standard two-electrode voltage-clamp measurements were performed at room temperature 2-4 days after injection using a Turbotec 05 amplifier (npi instruments, Tamm, Germany) and pClamp 5.5 software (Axon Instruments). Currents were usually recorded in ND98 solution (see Table 2). Linopirdine (RBI, Natick, Mass.) was prepared as a 100 mM stock solution in DMSO and added to a final concentration of 200 μM to ND98.
To determine the voltage dependence of apparent open probability, oocytes were clamped for 2 seconds to values between −80 mV to +40 mV, in 10 mV steps, followed by a constant −30 mV test pulse. Tail currents extrapolated to t=0 were obtained from a mono-exponential fit, normalised to the value at 0 mV and used for the analysis of apparent popen. Data analysis used PClamp6 and Microcal Origin 5.0.

T1 sequence (Q9NR82 36-932): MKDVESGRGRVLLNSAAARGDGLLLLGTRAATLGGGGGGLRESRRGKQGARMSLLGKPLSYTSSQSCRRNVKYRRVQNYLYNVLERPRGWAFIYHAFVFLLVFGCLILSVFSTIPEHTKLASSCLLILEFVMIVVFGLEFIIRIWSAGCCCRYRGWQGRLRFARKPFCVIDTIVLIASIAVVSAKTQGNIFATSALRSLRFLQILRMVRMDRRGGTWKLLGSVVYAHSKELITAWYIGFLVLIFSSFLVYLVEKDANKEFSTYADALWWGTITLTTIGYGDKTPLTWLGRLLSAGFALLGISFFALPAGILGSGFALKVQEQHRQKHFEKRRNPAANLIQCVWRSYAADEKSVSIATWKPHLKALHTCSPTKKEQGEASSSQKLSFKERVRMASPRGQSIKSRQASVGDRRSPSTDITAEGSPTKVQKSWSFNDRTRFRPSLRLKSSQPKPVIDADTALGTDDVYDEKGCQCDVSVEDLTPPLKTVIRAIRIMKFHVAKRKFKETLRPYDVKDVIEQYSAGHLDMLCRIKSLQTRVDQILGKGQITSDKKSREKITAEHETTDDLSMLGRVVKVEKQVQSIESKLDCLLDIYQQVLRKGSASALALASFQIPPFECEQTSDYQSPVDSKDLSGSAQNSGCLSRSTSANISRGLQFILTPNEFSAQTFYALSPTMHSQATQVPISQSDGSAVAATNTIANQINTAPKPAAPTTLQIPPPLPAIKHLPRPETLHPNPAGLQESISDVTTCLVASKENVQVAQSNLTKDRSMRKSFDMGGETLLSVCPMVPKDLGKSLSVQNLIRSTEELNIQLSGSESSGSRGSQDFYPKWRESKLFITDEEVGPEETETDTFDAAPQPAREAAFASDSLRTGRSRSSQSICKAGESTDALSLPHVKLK

shift of voltage dependence of apparent popen towards negative potentials (500 μM niflumic acid (FIG. 5B)): about 20 mV
Structure (SMILES): O=C(O)c1cccnc1Nc1cccc(C(F)(F)F)c1 [Niflumic acid, niflumic acid]

IC50 (extracellular application, Xenopus oocytes, from fit curves (FIG. 5A), read-out: IC50, inhibition of KCNQ5 homomers): 65 ± 4 µM
Structure (SMILES): O=C1c2ccccc2C(Cc2ccncc2)(Cc2ccncc2)c2ccccc21 [XE991, 10,10-bis-(4-pyridinyl-methyl)-9-(10H)-antracenone]

Structure (SMILES): [Ba+2] [Ba^++]
inhibition of KCNQ5 currents (5 mM): more than 80%

Reference: patent US7288630B2, “Potassium channel KCNQ5 and sequences encoding the same” (NeuroSearch A/S, priority 1999, dated 2007)
